Experimental data from ChEMBL document CHEMBL6078688, “Discovery of Novel MyD88 Inhibitor A5S to Alleviate Acute Lung Injury with Favorable Drug-like Properties” (J Med Chem, 2024).
The source made the active and inactive calls. The rule behind the calls is not given here.

How the values were obtained:
[1] = Drug concentration in Sprague-Dawley rat lung at 20 mg/kg,po administration measured upto 8 hrs by LC-MS/MS analysis; type: ADME, organism-based; conditions: in vivo
[2] = Cmax in Sprague-Dawley rat at 1 mg/kg,iv administration measured upto 24 hrs by LC-MS/MS analysis; type: ADME, organism-based; conditions: in vivo
Mus musculus [3] = assay: Antiinflammatory activity in cecal ligation and puncture induced sepsis C57BL/6 mouse model assessed as reduction in tissue destruction of lung at 20 mg/kg,po administrated with compound for 6 hrs followed by CLP induction and measured after 12 hrs by H and E staining based analysis; type: functional, organism-based; conditions: time 18.0 hrs
[4] = Acute toxicity in C57BL/6 mouse assessed as weight loss at 500 mg/kg,po administration measured after 3 days; type: organism-based; conditions: in vivo, 72 h, time 3 day
Mus musculus [5] = assay: Antiinflammatory activity in cecal ligation and puncture induced sepsis C57BL/6 mouse model assessed as reduction in IL-6 mRNA level in lung at 20 mg/kg,po administrated with compound for 6 hrs followed by CLP induction and measured after 12 hrs by RT-PCR analysis; type: functional, organism-based; conditions: time 18.0 hrs
[6] = Cmax in Sprague-Dawley rat at 20 mg/kg,po administration measured upto 24 hrs by LC-MS/MS analysis; type: ADME, organism-based; conditions: in vivo
Mus musculus [7] = assay: Antiinflammatory activity against LPS induced acute lung injury C57BL/6 mouse model assessed as reduction in TNF-alpha level in BALF at 20 mg/kg,po administrated with compound for 30 mins followed by LPS treatment and measured after 6 hrs by ELISA; type: functional, organism-based; conditions: time 6.5 hrs
J774.A1 [8] = assay: Inhibition of NF-kappaB signalling pathway in LPS-induced mouse J774.A1 cells assessed as upregulation of IkappaB-alpha expression by Western blotting analysis; type: cell-based
J774.A1 [9] = assay: Inhibition of MAPK signalling pathway in LPS stimulated mouse J774.A1 cells assessed as downregulation of p38 phosphorylation by Western blotting analysis; type: cell-based
Mus musculus [10] = assay: Antiinflammatory activity against LPS induced acute lung injury C57BL/6 mouse model assessed as reduction in TNF-alpha level in serum at 20 mg/kg,po administrated with compound for 30 mins followed by LPS treatment and measured after 6 hrs by ELISA; type: functional, organism-based; conditions: time 6.5 hrs
Mus musculus [11] = assay: Antiinflammatory activity against LPS induced acute lung injury C57BL/6 mouse model assessed as reduction in of leukocytes in alveolar region at 20 mg/kg,po administrated with compound for 30 mins followed by LPS treatment and measured after 6 hrs by immunohistochemical staining based analysis; type: functional, organism-based
[12] = Stability of compound in rat serum measured upto 12 hrs; type: ADME, cell-free
[13] = target: Toll-like receptor 4/Ly96 (Mus musculus) (UniProt Q9QUK6+Q9JHF9); assay: Inhibition of MD2/TLR4 protein-protein interaction in LPS-induced mouse J774.A1 cells at 20 uM incubated for 2 hrs by coimmunoprecipitation analysis; type: cell-based
[14] = target: T1, Myeloid differentiation primary response protein MyD88 (Homo sapiens, UniProt Q99836); assay: Binding affinity to CM5 sensor chip immobilized human MyD88 TIR domain assessed as thermal stabilization at 10 uM incubated for 4 hrs by cellular thermal shift assay
Mus musculus [15] = assay: Antiinflammatory activity against LPS induced acute lung injury C57BL/6 mouse model assessed as reduction in pulmonary edema by measuring reduction of lung wet to dry ratio at 20 mg/kg,po administrated measured after 48 hrs; type: functional, organism-based
[16] = Stability of compound in enzyme free simulated intestinal fluid measured upto 12 hrs; type: physicochemical; conditions: simulated gi fluid
Mus musculus [17] = assay: Antiinflammatory activity against LPS induced acute lung injury C57BL/6 mouse model assessed as reduction in IL-6 level in serum at 20 mg/kg,po administrated with compound for 30 mins followed by LPS treatment and measured after 6 hrs by ELISA; type: functional, organism-based; conditions: time 6.5 hrs
[18] = AUC (0 to t) in Sprague-Dawley rat at 20 mg/kg,po administration measured upto 24 hrs by LC-MS/MS analysis; type: ADME, organism-based; conditions: in vivo
[19] = Stability of compound in simulated gastric fluid measured upto 12 hrs; type: physicochemical; conditions: simulated gi fluid
Peritoneal macrophage = assay: Antiinflammatory activity in LPS-induced mouse Peritoneal macrophage cells assessed as inhibition of IFN-beta mRNA level at 1.25 to 5 uM by RT-PCR analysis; type: functional, cell-based; conditions: dose 1.25-5 µM
J774.A1 [20] = assay: Anti-inflammatory activity in LPS-induced mouse J774.A1 cells assessed as inhibition of IL-6 production by ELISA; type: functional, cell-based
J774.A1 [21] = assay: Inhibition of NF-kappaB signalling pathway in LPS-induced mouse J774.A1 cells assessed as downregulation of p65 phosphorylation by Western blotting analysis; type: cell-based
[22] = Acute toxicity in C57BL/6 mouse assessed as pathological change in kidney at 500 mg/kg,po administration measured upto 11 days by hematoxylin and eosin staining based assay; type: organism-based; conditions: in vivo, 264 h, time < 11 day
Mus musculus [23] = assay: Antiinflammatory activity in cecal ligation and puncture induced sepsis C57BL/6 mouse model assessed as reduction in TNF-alpha level in BALF at 20 mg/kg,po administrated with compound for 6 hrs followed by CLP induction and measured after 12 hrs by ELISA; type: functional, organism-based; conditions: time 18.0 hrs
[24] = target: T1, Myeloid differentiation primary response protein MyD88; assay: Binding affinity to CM5 sensor chip immobilized human MyD88 DD domain assessed as dissociation constant by SPR analysis

T1 sequence (Q99836 whole entry, the tested form may be a part): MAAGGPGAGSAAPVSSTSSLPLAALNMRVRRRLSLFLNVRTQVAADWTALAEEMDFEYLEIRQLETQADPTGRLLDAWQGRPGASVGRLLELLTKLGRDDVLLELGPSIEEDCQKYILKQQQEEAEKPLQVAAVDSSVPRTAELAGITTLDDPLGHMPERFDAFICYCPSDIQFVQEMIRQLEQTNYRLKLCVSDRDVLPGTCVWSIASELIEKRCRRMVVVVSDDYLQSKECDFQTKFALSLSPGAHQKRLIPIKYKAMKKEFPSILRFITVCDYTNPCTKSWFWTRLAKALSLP

**Q.** For `O[C@H](COc1ccc(Br)cc1)CN1CCN(Cc2cc3ccccc3[nH]2)CC1`, which Drug uptake [1] is on record?
**A.** Active

**Q.** And the Cmax [2]?
**A.** 1080 ng/mL

**Q.** And the Activity (Mus musculus [3])?
**A.** Active

**Q.** What about the Activity [4] of the same compound?
**A.** Toxic

**Q.** And the Activity (Mus musculus [5])?
**A.** Active

**Q.** What about the Cmax [6] of the same compound?
**A.** 320 ng/mL

**Q.** What about the Activity (Mus musculus [7]) of the same compound?
**A.** Active

**Q.** And the inhibition (J774.A1 [8])?
**A.** Active

**Q.** What about the inhibition (J774.A1 [9]) of the same compound?
**A.** Active

**Q.** What about the Activity (Mus musculus [10]) of the same compound?
**A.** Active

**Q.** And the Activity (Mus musculus [11])?
**A.** Active

**Q.** And the Stability [12]?
**A.** Stable

**Q.** What about the inhibition [13] of the same compound?
**A.** inactive

**Q.** And the Activity [14]?
**A.** Active

**Q.** And the Activity (Mus musculus [15])?
**A.** Active

**Q.** And the Stability [16]?
**A.** Stable

**Q.** What about the Activity (Mus musculus [17]) of the same compound?
**A.** Active

**Q.** And the AUC(0-t) at 24 h [18]?
**A.** 2860 ng·h/mL

**Q.** And the Stability [19]?
**A.** Stable

**Q.** What about the Activity (Peritoneal macrophage) of the same compound?
**A.** inactive

**Q.** What about the IC50 (J774.A1 [20]) of the same compound?
**A.** 240 nM

**Q.** What about the inhibition (J774.A1 [21]) of the same compound?
**A.** Active

**Q.** And the Activity [22]?
**A.** Non-toxic

**Q.** What about the Activity (Mus musculus [23]) of the same compound?
**A.** Active

**Q.** What about the Activity [24] of the same compound?
**A.** inactive
